Molecules are shown by their SMILES.

Details in the first data set: not given
In the case of `c1ccc2c(c1)c(Cc1cn(CN3CCCCC3)c3ccccc13)cn2CN1CCCCC1`, the melting point – broadly, the temperature, or range, at which the solid turns liquid – was 138 °C.

For `C[C@@H]1CCC[C@H](C)N1`, the boiling point (commonly the temperature at which the vapour pressure of the liquid equals the pressure above it) is 127 °C and the ready biodegradability result is recorded as “not readily biodegradable”.

Compound `O=Cc1ccc2ccccc2n1` yielded a melting point of 71 °C.

Compound `CC(C)CC(C)(C)C` yielded a boiling point of 99.2 °C, a log10 biodegradation half-life (days) of 1.6, a log10 vapour pressure (mmHg) of 1.69 and a melting point of -107 °C. Also, the ready biodegradability entry is listed as “not readily biodegradable”.

The compound `O=S(=O)(O)CS(=O)(=O)O` yielded a melting point of 98 °C. In the case of `Cc1cc(Cl)ccc1N`, the boiling point turned out to be 244 °C, the melting point was 30.3 °C and the ready biodegradability result is listed as “not readily biodegradable”. For the compound `N=C(N)N1CCc2ccccc2C1`, the melting point was 279 °C. On to `C=C(C)C1CC=C(C)CC1` (stereo not drawn), for which the boiling point worked out at 176 °C, the log10 vapour pressure (mmHg) worked out at 0.215, the melting point was -86.4 °C and the ready biodegradability result was “readily biodegradable”. Take `Fc1cc(F)nc(F)c1`: the boiling point was found to be 94.5 °C. On to `CCCC[N+](CCCC)(CCCC)CCCC.[I-]`, for which the melting point was found to be 148 °C. Regarding `C#CCCCC#C`, the boiling point was found to be 112 °C and the melting point is -85 °C.

In turn, `C=C(C)CC1(CC)C(=O)NC(=S)NC1=O` yielded a melting point of 160 °C. In the case of `COc1ccccc1Oc1ccccc1`, the boiling point was determined as 288 °C and the melting point was 79 °C. For `CCCC(C)(Cl)Cl`, the melting point stood at 128 °C. Compound `CC(=O)NCC(=O)O` registered a melting point of 206 °C.

Turning to `CCN1C(=O)NC(c2ccccc2)C1=O` (stereo not drawn), the melting point was determined as 94 °C. Same read-out and setting: next, `Clc1ccc(Cl)c2ncccc12`: 97.5 °C; `COc1cc(OC)c(OC)cc1C=O`: 114 °C. Turning to `Cc1cc(C)n(-c2ccccc2)n1`, the boiling point is 273 °C.

In turn, `C=C(CC)C(C)CC` (stereo not drawn) came in with a boiling point of 112 °C. Compound `CC1(C)O[C@H]2CC(=O)OC[C@]23[C@H]2CC[C@@]4(C)[C@H](c5ccoc5)OC(=O)[C@H]5O[C@]54[C@]2(C)C(=O)C[C@@H]13` came in with a melting point of 298 °C. On to `O=C(O)c1ccc(C(=O)O)o1`, for which the melting point worked out at 342 °C.

On to `CCC(CC)Nc1c([N+](=O)[O-])cc(C)c(C)c1[N+](=O)[O-]`, for which the boiling point turned out to be 330 °C, the log10 Koc (L/kg) stood at 3.7, the log10 vapour pressure (mmHg) is -4.52 and the melting point stood at 56 °C. `CN(C)c1ccc2c(c1)Sc1cc(N(C)C)ccc1N2C(=O)c1ccccc1` had a melting point of 195 °C. Same read-out and setting: next, `CCN(CC)c1ccc([N+](=O)[O-])cc1`: 77.5 °C; `Cc1ccc(N)cc1F`: 31 °C.

Compound `C1CN(CCN2CCOCC2)CCO1` gave a boiling point of 285 °C and a melting point of 75 °C.

The compound `CCOC(=O)C1=NN(c2ccc(Cl)cc2Cl)C(C)(C(=O)OCC)C1` (stereo not drawn) registered a log10 vapour pressure (mmHg) of -7.33 and a melting point of 51 °C. As for `CCC=Cc1ccccc1`, the boiling point came out at 199 °C and the melting point is -43.1 °C. Take `Cc1ccc(Cl)cc1O`: the ready biodegradability result is listed as “not readily biodegradable”.

Turning to `Nc1ccc(Oc2ccccc2)cc1`, the melting point is 83 °C. Consider `Cc1cccc(Br)c1C`, for which the boiling point amounted to 214 °C. `C=C(Cl)CO`: the ready biodegradability entry was “readily biodegradable”. For `O=C(Nc1cc(Cl)cc(Cl)c1O)c1c(O)c(Cl)cc(Cl)c1Cl`, the melting point worked out at 210 °C. Same read-out and setting: with `O=C(O)c1cccc2cccc(C(=O)O)c12` the figure was 260 °C. In the case of `O=S(O)c1ccccc1`, the melting point is 84 °C and the ready biodegradability entry is given as “not readily biodegradable”.

The compound `Nc1c(Cl)cc(C(=O)O)cc1Cl` returned a melting point of 292 °C. On to `CC1=CC=CC1`, for which the boiling point stood at 72.8 °C and the log10 vapour pressure (mmHg) is 2.09. The compound `O=Cc1ccc(O)cc1O` returned a melting point of 135 °C. Take `CCC(C(C)=O)C(C)=O`: the boiling point stood at 178 °C.

In the case of `CCC(Br)(Br)CBr`, the boiling point was determined as 214 °C. With `O=C(O)c1ccc(O)c(O)c1`, the ready biodegradability entry is “readily biodegradable”. In the case of `COC(=O)C(Cl)(Cl)Cl`, the boiling point is 154 °C and the melting point is -17.5 °C.

Staying with this data set, now noted: fish.
The compound `C[C@@H]1CCC[C@H](C)N1` yielded a log10 BCF of 0.7. Still for that read-out and setting: next, `Cc1cc(Cl)ccc1N`: 1.54. Turning to `CC1(C)[C@H](C(=O)OCc2cccc(Oc3ccccc3)c2)[C@@H]1C=C(Cl)Cl` (single isomer, unassigned), the log10 BCF turned out to be 2.65 and the log10 biotransformation half-life (days) was 0.37.

The values above are taken from the OPERA property sets (Mansouri et al. 2018).
